Molecular target: Mitogen-activated protein kinase 1 (Mus musculus, UniProt P63085)
Assay: IMAP Assay : Condition 1: Activated ERK2 activity was also determined in the IMAP assay format using the procedure outlined above. 1 μl of 25× compound was added to […] of kinase buffer containing 0.25 ng fully phosphorylated, active Mouse ERK2 protein. Following a 30 minute incubation, the reactions were initiated by addition of 10 μl of kinase buffer containing 1 μM ERK2 IMAP substrate peptide (0.9 μM unlabeled […]-CONH2 and 100 nM […](5-carboxyfluorescein)-CONH2) and 30 μM ATP. Reactions proceeded for 30 minutes before termination by addition of 60 μl IMAP detection beads in binding buffer. Plates were read as above after 30 minute binding equilibration. Active compounds were reconfirmed in an independent assay.

Chain of Mitogen-activated protein kinase 1 (P63085 whole entry): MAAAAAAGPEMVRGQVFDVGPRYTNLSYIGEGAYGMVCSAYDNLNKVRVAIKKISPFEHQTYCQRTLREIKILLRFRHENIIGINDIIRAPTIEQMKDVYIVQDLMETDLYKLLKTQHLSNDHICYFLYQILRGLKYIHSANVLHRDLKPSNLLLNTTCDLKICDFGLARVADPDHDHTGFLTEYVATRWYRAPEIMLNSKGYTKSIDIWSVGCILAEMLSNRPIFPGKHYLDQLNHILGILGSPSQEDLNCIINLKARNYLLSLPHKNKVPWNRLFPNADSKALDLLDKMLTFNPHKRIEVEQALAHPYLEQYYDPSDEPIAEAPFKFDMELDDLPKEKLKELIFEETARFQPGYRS

SMILES: COc1cccc(F)c1CN1C[C@H](NC(=O)c2ccc3[nH]nc(-c4ccncc4)c3c2)CC[C@H]1C(=O)N1CCC(F)(F)CC1
- IC50: 0.035 µM
